Molecular target: human orexin-2 receptor (Homo sapiens (Human), UniProt O43614)
Test: radioligand binding assay, hOX2 Bind
Conditions: membranes prepared from CHO cells expressing the OX2 receptor; read-out: hOX2 Bind hKi
Description: The utility of the compounds in accordance with the present invention as orexin receptor OX1R and/or OX2R antagonists may be readily determined without undue experimentation by methodology well known in the art, including the “FLIPR Ca^2+ Flux Assay” (Okumura et al., Biochem. Biophys. Res. Comm. 280:976-981, 2001). In a typical experiment the OX1 and OX2 receptor antagonistic activity of the compounds of the present invention was determined in accordance with the following experimental method. For intracellular calcium measurements, Chinese hamster ovary (CHO) cells expressing the rat orexin-1 receptor or the human orexin-2 receptor, are grown in Iscove's modified DMEM containing 2 mM L-glutamine, […], 1% hypoxanthine-thymidine supplement, 100 U/ml penicillin, 100 μg/ml streptomycin and 10% heat-inactivated fetal calf serum (FCS). The cells are seeded at 20,000 cells/well into Becton-Dickinson black 384-well clear bottom sterile plates coated with poly-D-lysine. All reagents were from GIBCO-Invitrogen Corp. The seeded plates are incubated overnight at 37° C. and 5% CO2. […] Within the Fluorescent Imaging Plate Reader (FLIPR, Molecular Devices), test compounds are added to the plate in a volume of […] for 5 min and finally 25 μl of agonist is added. Fluorescence is measured for each well at 1 second intervals for 5 minutes and the height of each fluorescence peak is compared to the height of the fluorescence peak induced by 70 pM Ala-6,12 orexin-A with buffer in place of antagonist. […] Alternatively, compound potency can be assessed by a radioligand binding assay (described in Bergman et. al. Bioorg. Med. Chem. Lett. 2008, 18, 1425-1430) in which the inhibition constant (Ki) is determined in membranes prepared from CHO cells expressing either the OX1 or OX2 receptor. The intrinsic orexin receptor antagonist activity of a compound which may be used in the present invention may be determined by these assays. […]

human orexin-2 receptor, sequence (O43614 whole entry): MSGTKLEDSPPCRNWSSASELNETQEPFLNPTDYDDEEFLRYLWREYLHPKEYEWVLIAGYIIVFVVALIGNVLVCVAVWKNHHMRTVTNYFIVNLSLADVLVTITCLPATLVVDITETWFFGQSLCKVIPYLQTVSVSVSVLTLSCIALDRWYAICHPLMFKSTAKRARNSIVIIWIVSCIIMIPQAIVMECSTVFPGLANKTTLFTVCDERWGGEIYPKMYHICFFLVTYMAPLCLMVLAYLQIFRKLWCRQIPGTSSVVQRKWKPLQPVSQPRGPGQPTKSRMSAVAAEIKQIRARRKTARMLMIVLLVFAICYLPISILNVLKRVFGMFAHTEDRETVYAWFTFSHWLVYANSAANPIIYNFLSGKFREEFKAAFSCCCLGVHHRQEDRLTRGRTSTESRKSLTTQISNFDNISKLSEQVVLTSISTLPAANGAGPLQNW

Structure (SMILES): COc1ccc(CNC(=O)c2cc(-c3cncc(Br)c3)nc3onc(-c4ccccc4)c23)nc1OC [Example 1-8, 6-(5-bromopyridin-3-yl)-N-[(5,6-dimethoxypyridin-2-yl)methyl]-3-phenylisoxazolo[5,4-b] pyridine-4-carboxamide]
- Ki: 3.8 nM

Structure (SMILES): COc1ccc(CNC(=O)c2cc(-c3cncc(C)c3)nc3onc(-c4ccccc4)c23)cc1OC [Example 1-12, N-(3,4-dimethoxybenzyl)-6-(5-methylpyridin-3-yl)-3-phenylisoxazolo[5,4-b]pyridine-4-carboxamide]
- Ki: 10.8 nM

Structure (SMILES): COc1cc(C)c(CNC(=O)c2cc(-c3cncc(C)c3)nc3onc(-c4cccs4)c23)nc1OC [Example 1-21, N-[(5,6-dimethoxy-3-methylpyridin-2-yl)methyl]-6-(5-methylpyridin-3-yl)-3-(thiophen-2-yl)isoxazolo[5,4-b]pyridine-4-carboxamide]
- Ki: 0.7 nM
